Measurements from the supplement of paper PMC11451515.

How the values were obtained:
Conditions in all cases: 48 h
[1] = test system: SEM cells; assay: cell viability relative to DMSO control; higher = less cytotoxic
In short: (§1)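 NOMO1 or SEM cells were plated at 500 cells/well and P12-Ichikawa cells at 1000 cells/well in 1536-well plates (5 μl), after each leukemia line had been adapted for at least four passages in each medium. Pin dosing delivered library compounds in DMSO at 11 threefold concentrations, 47 μM to 0.79 nM. CellTiter-Glo One luminescence was read after 48 h at 37°C. Viability is reported as a per-plate percentage of DMSO wells, with cell-free wells as background.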

[2] = test system: NOMO1; assay: AUC of viability dose-response curve (% viability x log10 dose units); higher = less sensitive
In short: (§2)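 Leukemia cells adapted to each medium were seeded at 500 or 1000 cells/well in 1536-well plates and dosed with library compounds in DMSO at 11 threefold doses from 47 μM to 0.79 nM for 48 h at 37°C. CellTiter-Glo One luminescence was normalised per plate to DMSO and cell-free wells, then fitted with a four-parameter log-logistic model over log10 doses. Area under the curve was taken from this fit by the trapezoidal rule, with curves above full viability scaled and curves failing quality control removed.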

[3] = test system: P12-Ichikawa; assay: as above
In short: as §2

[4] = test system: SEM cells; assay: as above
In short: as §2

[5] = test system: NOMO1; assay: cell viability relative to DMSO control; higher = less cytotoxic
In short: as §1

[6] = test system: P12-Ichikawa; assay: as above
In short: as §1

[7] = RPMI 5 mM glucose + 10% dialyzed FBS, 0.000781 µM
[8] = RPMI 5 mM glucose + 10% dialyzed FBS, 0.00234 µM
[9] = RPMI 5 mM glucose + 10% dialyzed FBS, 0.00702 µM
[10] = RPMI 5 mM glucose + 10% dialyzed FBS, 0.0211 µM
[11] = RPMI 5 mM glucose + 10% dialyzed FBS, 0.0632 µM
[12] = RPMI 5 mM glucose + 10% dialyzed FBS, 0.19 µM
[13] = RPMI 5 mM glucose + 10% dialyzed FBS, 0.569 µM
[14] = RPMI 5 mM glucose + 10% dialyzed FBS, 1.71 µM
[15] = RPMI 5 mM glucose + 10% dialyzed FBS, 5.12 µM
[16] = RPMI 5 mM glucose + 10% dialyzed FBS, 15.4 µM
[17] = RPMI 5 mM glucose + 10% dialyzed FBS, 46.1 µM
[18] = RPMI 5 mM glucose + 10% dialyzed FBS
[19] = HPLM + 10% dialyzed FBS, 0.000781 µM
[20] = HPLM + 10% dialyzed FBS, 0.00234 µM
[21] = HPLM + 10% dialyzed FBS, 0.00702 µM
[22] = HPLM + 10% dialyzed FBS, 0.0211 µM
[23] = HPLM + 10% dialyzed FBS, 0.0632 µM
[24] = HPLM + 10% dialyzed FBS, 0.19 µM
[25] = HPLM + 10% dialyzed FBS, 0.569 µM
[26] = HPLM + 10% dialyzed FBS, 1.71 µM
[27] = HPLM + 10% dialyzed FBS, 5.12 µM
[28] = HPLM + 10% dialyzed FBS, 15.4 µM
[29] = HPLM + 10% dialyzed FBS, 46.1 µM
[30] = RPMI 5 mM glucose + 10% FBS, 0.000781 µM
[31] = RPMI 5 mM glucose + 10% FBS, 0.00234 µM
[32] = RPMI 5 mM glucose + 10% FBS, 0.00702 µM
[33] = RPMI 5 mM glucose + 10% FBS, 0.0211 µM
[34] = RPMI 5 mM glucose + 10% FBS, 0.0632 µM
[35] = RPMI 5 mM glucose + 10% FBS, 0.19 µM
[36] = RPMI 5 mM glucose + 10% FBS, 0.569 µM
[37] = RPMI 5 mM glucose + 10% FBS, 1.71 µM
[38] = RPMI 5 mM glucose + 10% FBS, 5.12 µM
[39] = RPMI 5 mM glucose + 10% FBS, 15.4 µM
[40] = RPMI 5 mM glucose + 10% FBS, 46.1 µM

C=C[C@H]1CN2CCC1C[C@H]2[C@H](O)c1ccnc2ccccc12 (some centres not stated)
cell viability [1, 7]: 123% | cell viability [1, 8]: 120% | cell viability [1, 9]: 122% | cell viability [1, 10]: 133% | cell viability [1, 11]: 126% | cell viability [1, 12]: 138% | cell viability [1, 13]: 132% | cell viability [1, 14]: 133% | cell viability [1, 15]: 108% | cell viability [1, 16]: 110% | cell viability [1, 17]: 55.1% | AUC of viability dose-response curve ([2]; HPLM + 10% dialyzed FBS): 451 | AUC of viability dose-response curve ([2]; RPMI 5 mM glucose + 10% FBS): 461 | AUC of viability dose-response curve [2, 18]: 433 | AUC of viability dose-response curve ([3]; HPLM + 10% dialyzed FBS): 458 | AUC of viability dose-response curve ([3]; RPMI 5 mM glucose + 10% FBS): 451 | AUC of viability dose-response curve [3, 18]: 461 | AUC of viability dose-response curve ([4]; HPLM + 10% dialyzed FBS): 449 | AUC of viability dose-response curve ([4]; RPMI 5 mM glucose + 10% FBS): 441 | AUC of viability dose-response curve [4, 18]: 452

CN1CCN(c2cc(C(=O)Nc3ccc4c(c3)-c3c(c(C(N)=O)nn3-c3ccc(F)cc3)CC4)c(Cl)cn2)CC1
cell viability [5, 19]: 123% | cell viability [5, 20]: 106% | cell viability [5, 21]: 108% | cell viability [5, 22]: 113% | cell viability [5, 23]: 114% | cell viability [5, 24]: 127% | cell viability [5, 25]: 113% | cell viability [5, 26]: 103% | cell viability [5, 27]: 99.4% | cell viability [5, 28]: 85.9% | cell viability [5, 29]: 1.35% | cell viability [5, 30]: 108% | cell viability [5, 31]: 102% | cell viability [5, 32]: 111% | cell viability [5, 33]: 109% | cell viability [5, 34]: 109% | cell viability [5, 35]: 107% | cell viability [5, 36]: 112% | cell viability [5, 37]: 106% | cell viability [5, 38]: 109% | cell viability [5, 39]: 97.4% | cell viability [5, 40]: 2.41% | cell viability [5, 7]: 116% | cell viability [5, 8]: 108% | cell viability [5, 9]: 121% | cell viability [5, 10]: 102% | cell viability [5, 11]: 117% | cell viability [5, 12]: 107% | cell viability [5, 13]: 93.4% | cell viability [5, 14]: 100% | cell viability [5, 15]: 99.9% | cell viability [5, 16]: 102% | cell viability [5, 17]: 2.16% | cell viability [6, 19]: 115% | cell viability [6, 20]: 109% | cell viability [6, 21]: 102% | cell viability [6, 22]: 114% | cell viability [6, 23]: 114% | cell viability [6, 24]: 107% | cell viability [6, 25]: 105% | cell viability [6, 26]: 98.1% | cell viability [6, 27]: 104% | cell viability [6, 28]: 95% | cell viability [6, 29]: 3.56% | cell viability [6, 30]: 113% | cell viability [6, 31]: 111% | cell viability [6, 32]: 116% | cell viability [6, 33]: 113% | cell viability [6, 34]: 109% | cell viability [6, 35]: 120% | cell viability [6, 36]: 107% | cell viability [6, 37]: 102% | cell viability [6, 38]: 103% | cell viability [6, 39]: 104% | cell viability [6, 40]: 12% | cell viability [6, 7]: 113% | cell viability [6, 8]: 107% | cell viability [6, 9]: 122% | cell viability [6, 10]: 111% | cell viability [6, 11]: 124% | cell viability [6, 12]: 109% | cell viability [6, 13]: 105% | cell viability [6, 14]: 100% | cell viability [6, 15]: 104% | cell viability [6, 16]: 102% | cell viability [6, 17]: 5.67% | cell viability [1, 19]: 93.3% | cell viability [1, 20]: 95.7% | cell viability [1, 21]: 103% | cell viability [1, 22]: 109% | cell viability [1, 23]: 116% | cell viability [1, 24]: 110% | cell viability [1, 25]: 105% | cell viability [1, 26]: 103% | cell viability [1, 27]: 110% | cell viability [1, 28]: 81.8% | cell viability [1, 29]: 4.03% | cell viability [1, 7]: 125% | cell viability [1, 8]: 109% | cell viability [1, 9]: 121% | cell viability [1, 10]: 131% | cell viability [1, 11]: 138% | cell viability [1, 12]: 120% | cell viability [1, 13]: 103% | cell viability [1, 14]: 104% | cell viability [1, 15]: 109% | cell viability [1, 16]: 106% | cell viability [1, 17]: 3.39% | AUC of viability dose-response curve ([2]; HPLM + 10% dialyzed FBS): 442 | AUC of viability dose-response curve ([2]; RPMI 5 mM glucose + 10% FBS): 449 | AUC of viability dose-response curve [2, 18]: 451 | AUC of viability dose-response curve ([3]; HPLM + 10% dialyzed FBS): 448 | AUC of viability dose-response curve ([3]; RPMI 5 mM glucose + 10% FBS): 453 | AUC of viability dose-response curve [3, 18]: 451 | AUC of viability dose-response curve ([4]; HPLM + 10% dialyzed FBS): 444 | AUC of viability dose-response curve ([4]; RPMI 5 mM glucose + 10% FBS): 360 | AUC of viability dose-response curve [4, 18]: 449
